US12091426B2, “Bifunctional degraders of hematopoietic progenitor kinase and therapeutic uses thereof” (Nurix Therapeutics, Inc., priority 2021, dated 2024)

Target: T1, HPK1 (Homo sapiens, UniProt Q92918)
T1 construct: A HiBiT tag was introduced by CRISPR on the N terminus of HPK1 in Jurkat cells; host or cells: Jurkat cells (ATCC TIB-152), monoclonal line with CRISPR knock-in of HiBiT at the endogenous HPK1 locus
Test: HPK1 Cellular HiBit Degradation Assay
Type: cell-based
Details: HiBiT HPK1 Jurkat cells, 24 hrs; for DC50: concentration at which 50% of HPK1 was remaining, read-out: DC50 Category; for Dmax: Jurkat, maximum degradation vs DMSO vehicle control, read-out: Dmax Category
Method in brief: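 Jurkat cells with CRISPR knock-in N-terminal HiBiT-HPK1 were treated with CTMs (11-point, 3.16-fold, 10 uM to 0.1 nM final) for 24 hrs at 37° C. HiBiT lytic luminescence, with parental Jurkat as background and DMSO as 100%, gave % HPK1 remaining; four-parameter fit yielded DC50 and Dmax (100 minus lowest % remaining).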

T1 sequence (Q92918 whole entry): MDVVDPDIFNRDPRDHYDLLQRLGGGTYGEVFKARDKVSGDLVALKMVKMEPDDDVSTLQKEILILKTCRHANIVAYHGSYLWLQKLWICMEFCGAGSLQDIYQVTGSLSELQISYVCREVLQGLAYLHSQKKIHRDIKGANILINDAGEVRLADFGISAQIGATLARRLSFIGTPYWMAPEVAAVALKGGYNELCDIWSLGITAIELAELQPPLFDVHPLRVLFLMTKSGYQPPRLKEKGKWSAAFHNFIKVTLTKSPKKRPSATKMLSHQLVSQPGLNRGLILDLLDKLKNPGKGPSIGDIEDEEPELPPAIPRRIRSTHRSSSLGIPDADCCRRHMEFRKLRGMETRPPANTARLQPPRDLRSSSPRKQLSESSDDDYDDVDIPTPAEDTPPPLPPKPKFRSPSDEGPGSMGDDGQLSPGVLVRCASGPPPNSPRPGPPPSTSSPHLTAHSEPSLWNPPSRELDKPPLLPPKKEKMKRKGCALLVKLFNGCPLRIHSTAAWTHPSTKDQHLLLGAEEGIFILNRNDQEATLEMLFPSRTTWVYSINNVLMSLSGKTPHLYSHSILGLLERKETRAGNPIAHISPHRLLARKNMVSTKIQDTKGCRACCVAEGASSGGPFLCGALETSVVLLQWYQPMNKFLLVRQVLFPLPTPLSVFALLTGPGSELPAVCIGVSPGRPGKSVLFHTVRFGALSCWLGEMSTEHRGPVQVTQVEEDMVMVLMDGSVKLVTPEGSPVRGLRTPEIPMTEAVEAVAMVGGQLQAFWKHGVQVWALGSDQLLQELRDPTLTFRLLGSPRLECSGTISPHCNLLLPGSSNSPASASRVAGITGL

DC50 [nM]	Dmax [%]	Compound
< 100	50 to 70	CC(C)n1cnc2cc(-c3ccc4c(c3)N([C@H]3C[C@@H](N5CCCCC5)C3)C(=O)C43CCN(C(=O)C4CCN(C(=O)C5CCN(c6ccc(C7CCC(=O)NC7=O)cn6)CC5)CC4)CC3)nc(NC3CCOCC3)c21 (mixture of isomers) [Example 78, (3RS)-3-[6-(4-{4-[(6-{4-[(oxan-4-yl)amino]-3-(propan-2-yl)-3H-imidazo[4,5-c]pyridin-6-yl}-2-oxo-1-[(1S,3S)-3-(piperidin-1-yl)cyclobutyl]-1,2-dihydrospiro[indole-3,4′-piperidin]-1′-yl)carbonyl]piperidine-1-carbonyl}piperidin-1-yl)pyridin-3-yl]piperidine-2,6-dione]
100 to 500	70 to 85	CC(C)n1cnc2cc(-c3ccc4c(c3)N([C@H]3C[C@@H](N5CCCCC5)C3)C(=O)C43CCN(C(=O)C4(C)CCN(C(=O)C5CCN(c6ccc(C7CCC(=O)NC7=O)cn6)CC5)CC4)CC3)nc(N(C)C3CC3)c21 (stereo partly drawn) [Example 171, 3-[6-(4-{4-[(6-{4-[cyclopropyl(methyl)amino]-3-(propan-2-yl)-3H-imidazo[4,5-c]pyridin-6-yl}-2-oxo-1-[(1S,3S)-3-(piperidin-1-yl)cyclobutyl]-1,2-dihydrospiro[indole-3,4′-piperidin]-1′-yl)carbonyl]-4-methylpiperidine-1-carbonyl}piperidin-1-yl)pyridin-3-yl]piperidine-2,6-dione]
< 100	70 to 85	Cc1cc(N2CCC(C(=O)N3CCC(C)(C(=O)N4CCC5(CC4)C(=O)N([C@H]4C[C@@H](N6CCCCC6)C4)c4cc(-c6cc7ncn(C(C)C)c7c(NC7CC7)n6)ccc45)CC3)CC2)ncc1C1CCC(=O)NC1=O (mixture of isomers) [Example 189, (3RS)-3-(6-{4-[4-({6-[4-(cyclopropylamino)-3-isopropylimidazo[4,5-c]pyridin-6-yl]-2-oxo-1-[(1S,3S)-3-(piperidin-1-yl)cyclobutyl]spiro[indole-3,4′-piperidin]-1′-yl}carbonyl)-4-methylpiperidine-1-carbonyl]piperidin-1-yl}-4-Methylpyridin-3-yl)piperidine-2,6-dione]
500 to 1000	50 to 70	CC(C)n1cnc2cc(-c3ccc4c(c3)N([C@H]3C[C@@H](N5CCCCC5)C3)C(=O)C43CCN(C(=O)c4ccc(C(=O)N5CCC(N(C)c6ccc(C7CCC(=O)NC7=O)cn6)CC5)cc4)CC3)nc(Nc3ccccc3F)c21 (mixture of isomers) [Example 140, (3RS)-3-{6-[(1-{4-[(6-{4-[(2-fluorophenyl)amino]-3-(propan-2-yl)-3H-imidazo[4,5-c]pyridin-6-yl}-2-oxo-1-[(1S,3S)-3-(piperidin-1-yl)cyclobutyl]-1,2-dihydrospiro[indole-3,4′-piperidin]-1′-yl)carbonyl]benzoyl}piperidin-4-yl)(methyl)amino]pyridin-3-yl}piperidine-2,6-dione]
< 100	70 to 85	CC(C)n1cnc2cc(-c3ccc4c(c3)N([C@H]3C[C@@H](N5CCCCC5)C3)C(=O)C43CCN(C(=O)[C@@H]4CCN(C(=O)[C@H]5CC[C@H](Nc6cccc7c6C(=O)N(C6CCC(=O)NC6=O)C7=O)CC5)C4)CC3)nc(NC3CC3)c21 (mixture of isomers) [Example 10, 2-[(3RS)-2,6-dioxopiperidin-3-yl]-4-{[(1R,4R)-4-[(3R)-3-({6-[4-(cyclopropylamino)-3-(propan-2-yl)-3H-imidazo[4,5-c]pyridin-6-yl]-2-oxo-1-[(1S,3S)-3-(piperidin-1-yl)cyclobutyl]-1,2-dihydrospiro[indole-3,4′-piperidin]-1′-yl}carbonyl)pyrrolidine-1-carbonyl]cyclohexyl]amino}-2,3-dihydro-1H-isoindole-1,3-dione]
100 to 500	50 to 70	CC(C)n1cnc2cc(-c3ccc4c(c3)N([C@H]3C[C@@H](N5CCCCC5)C3)C(=O)C43CCN(C(=O)C4CCN(C(=O)C5CCN(c6ncc(C7CCC(=O)NC7=O)cn6)CC5)CC4)CC3)nc(Nc3ccncc3F)c21 (mixture of isomers) [Example 91, (3RS)-3-[2-(4-{4-[(6-{4-[(3-Fluoropyridin-4-yl)amino]-3-(propan-2-yl)-3H-imidazo[4,5-c]pyridin-6-yl}-2-oxo-1-[(1S,3S)-3-(piperidin-1-yl)cyclobutyl]-1,2-dihydrospiro[indole-3,4′-piperidin]-1′-yl)carbonyl]piperidine-1-carbonyl}piperidin-1-yl)pyrimidin-5-yl]piperidine-2,6-dione]
100 to 500	70 to 85	CC(C)n1cnc2cc(-c3ccc4c(c3)N([C@H]3C[C@@H](N5CCCCC5)C3)C(=O)C43CCN(C(=O)c4ccc(C5CCN(C(=O)C6CCN(c7ccc(C8CCC(=O)NC8=O)cn7)CC6)CC5)cc4)CC3)nc(NC3CC3)c21 (mixture of isomers) [Example 302, (3RS)-3-[6-(4-{4-[4-({6-[4-(cyclopropylamino)-3-(propan-2-yl)-3H-imidazo[4,5-c]pyridin-6-yl]-2-oxo-1-[(1S,3S)-3-(piperidin-1-yl)cyclobutyl]-1,2-dihydrospiro[indole-3,4′-piperidin]-1′-yl}carbonyl)phenyl]piperidine-1-carbonyl}piperidin-1-yl)pyridin-3-yl]piperidine-2,6-dione]
< 100	70 to 85	CC(C)n1cnc2cc(-c3ccc4c(c3)N([C@H]3C[C@@H](N5CCCCC5)C3)C(=O)C43CCN(C(=O)[C@@H]4CCN(C(=O)[C@H]5CC[C@H](Oc6ccc(N7CCC(=O)NC7=O)cn6)CC5)C4)CC3)nc(NC3CC3)c21 [Example 20, 1-(6-{[(1R,4R)-4-[(3R)-3-({6-[4-(cyclopropylamino)-3-(propan-2-yl)-3H-imidazo[4,5-c]pyridin-6-yl]-2-oxo-1-[(1S,3S)-3-(piperidin-1-yl)cyclobutyl]-1,2-dihydrospiro[indole-3,4′-piperidin]-1′-yl}carbonyl)pyrrolidine-1-carbonyl]cyclohexyl]oxy}pyridin-3-yl)-1,3-diazinane-2,4-dione]
< 100	70 to 85	CC(C)n1cnc2cc(-c3ccc4c(c3)N([C@H]3C[C@@H](N5CCCCC5)C3)C(=O)C43CCN(C(=O)C4(C)CCN(C(=O)C5CCN(c6ccc(N7CCC(=O)NC7=O)cc6)CC5)CC4)CC3)nc(NC3CC3)c21 [Example 211, 1-(4-{4-[4-({6-[4-(cyclopropylamino)-3-(propan-2-yl)-3H-imidazo[4,5-c]pyridin-6-yl]-2-oxo-1-[(1S,3S)-3-(piperidin-1-yl)cyclobutyl]-1,2-dihydrospiro[indole-3,4′-piperidin]-1′-yl}carbonyl)-4-methylpiperidine-1-carbonyl]piperidin-1-yl}phenyl)-1,3-diazinane-2,4-dione]
< 100	70 to 85	CC(C)n1cnc2cc(-c3ccc4c(c3)N([C@H]3C[C@@H](N5CCCCC5)C3)C(=O)C43CCN(C(=O)C4CCN(C(=O)C5CCN(c6ccc(C7CCC(=O)NC7=O)cn6)CC5)CC4)CC3)nc(Nc3ccncc3F)c21 (mixture of isomers) [Example 77, (3RS)-3-[6-(4-{4-[(6-{4-[(3-Fluoropyridin-4-yl)amino]-3-(propan-2-yl)-3H-imidazo[4,5-c]pyridin-6-yl}-2-oxo-1-[(1S,3S)-3-(piperidin-1-yl)cyclobutyl]-1,2-dihydrospiro[indole-3,4′-piperidin]-1′-yl)carbonyl]piperidine-1-carbonyl}piperidin-1-yl)pyridin-3-yl]piperidine-2,6-dione]
< 100	50 to 70	CC(C)n1cnc2cc(-c3ccc4c(c3)N([C@H]3C[C@@H](N5CCCCC5)C3)C(=O)C43CCN(C(=O)C4CCN(C(=O)C5CCN(c6ccc(N7CCC(=O)NC7=O)cn6)CC5)CC4)CC3)nc(Nc3ccncc3F)c21 [Example 81, 1-[6-(4-{4-[(6-{4-[(3-Fluoropyridin-4-yl)amino]-3-(propan-2-yl)-3H-imidazo[4,5-c]pyridin-6-yl}-2-oxo-1-[(1S,3S)-3-(piperidin-1-yl)cyclobutyl]-1,2-dihydrospiro[indole-3,4′-piperidin]-1′-yl)carbonyl]piperidine-1-carbonyl}piperidin-1-yl)pyridin-3-yl]-1,3-diazinane-2,4-dione]
< 100	70 to 85	CC(C)n1cnc2cc(-c3ccc4c(c3)N([C@H]3C[C@@H](N5CCCCC5)C3)C(=O)C43CCN(C(=O)[C@@H]4CCCN(C(=O)[C@H]5CC[C@H](Oc6ccc(C7CCC(=O)NC7=O)cc6)CC5)C4)CC3)nc(NC3CC3)c21 (mixture of isomers) [Example 234, (3RS)-3-(4-{[(1R,4R)-4-[(3R)-3-({6-[4-(cyclopropylamino)-3-(propan-2-yl)-3H-imidazo[4,5-c]pyridin-6-yl]-2-oxo-1-[(1S,3S)-3-(piperidin-1-yl)cyclobutyl]-1,2-dihydrospiro[indole-3,4′-piperidin]-1′-yl}carbonyl)piperidine-1-carbonyl]cyclohexyl]oxy}phenyl)piperidine-2,6-dione]
500 to 1000	50 to 70	CC(C)n1cnc2cc(-c3ccc4c(c3)N([C@H]3C[C@@H](N5CCCCC5)C3)C(=O)C43CCN(C(=O)C4CCN(C(=O)[C@H]5CC[C@H](Nc6cc(C7CCC(=O)NC7=O)ccn6)CC5)CC4)CC3)nc(Nc3ccccc3F)c21 (mixture of isomers) [Example 52, (3RS)-3-(2-{[(1R,4R)-4-{4-[(6-{4-[(2-fluorophenyl)amino]-3-(propan-2-yl)-3H-imidazo[4,5-c]pyridin-6-yl}-2-oxo-1-[(1S,3S)-3-(piperidin-1-yl)cyclobutyl]-1,2-dihydrospiro[indole-3,4′-piperidin]-1′-yl)carbonyl]piperidine-1-carbonyl}cyclohexyl]amino}pyridin-4-yl)piperidine-2,6-dione]
